Experimental data published in patent US12419873B2, “Use of JAK inhibitors in preparation of drugs for treating JAK kinase-related diseases” (ZHUHAI UNITED LABORATORIES CO., LTD., priority 2020, dated 2025).
Entries after “also recorded” stand apart in the source; their conditions may differ. Values belong to the molecule of their own block, whether it stands above or below them.

Legend:
JAK1 = JAK1 (Homo sapiens (Human), UniProt P23458); experiment: In vitro activity test of JAK1 kinase; assay type: biochemical
Description: (§1) Recombinant human JAK1, JAK2, JAK3, TyK2 protease, main instruments and reagents were provided by Eurofins in the UK
(§2) All compounds were prepared into a 100% DMSO solution and reached 50 times the final determined concentration. The test compound was diluted by 3 times the concentration gradient, and the final concentration was 10 μM to 0.001 μM, 9 concentrations in total, and the content of DMSO in the detection reaction was 2%. The working stock solution of the compound was added to a determination hole as the first component of the reaction, and then the remaining components were added according to the detailed scheme determination below.
(§3) Mg/ATP mixture was added to start the reaction. After incubation at room temperature for 40 minutes, 0.5% phosphoric acid was added to stop the reaction.

JAK2 = JAK2 (Homo sapiens (Human), UniProt O60674); experiment: In vitro activity test of JAK2 kinase; settings: read-out: JAK2 (IC50)
TYK2 = TYK2 (Homo sapiens (Human), UniProt P29597); experiment: In vitro activity test of TYK2 kinase; assay type: biochemical
Description: as §1, §2, §3

JAK3 = JAK3 (Homo sapiens (Human), UniProt P52333); experiment: In vitro activity test of JAK3 kinase; assay type: biochemical
Description: as §1, §2, §3

[1] = test system: DNCB induced allergic dermatitis in mice; experiment: In vivo pharmacodynamic study on DNCB induced allergic dermatitis (AD) in mice
[2] = test system: DSS induced ulcerative colitis and Crohn's disease in mice; experiment: In vivo pharmacodynamic study on DSS induced inflammatory bowel disease (IBD) in mice; design: species or system mice (C57BL/6); Colon length: unit not given here; settings: for Colon length: after the experiment
Excerpt: Inflammatory bowl disease (IBD) is a kind of recurrent disease. It is difficult to cure, has a high recurrence rate, and has a poor prognosis, it has a certain correlation with the incidence of colon cancer. The development of drugs for the treatment of IBD will help alleviate the symptoms of ulcerative colitis and Crohn's disease and improve the quality of life of patients. The mouse inflammation model induced by dextran sulfate sodium (DSS) is similar to the human disease ulcerative colitis and Crohn's disease. It is a common classical model for preclinical evaluation of drug efficacy.
Preparation method of DSS: 20 g DSS was weighed, 1000 mL drinking water was added to form 2% DSS solution, and stored in a 4° C. refrigerator. It is effective within one month.
Preparation method of a solvent: Vehicle solution is an aqueous solution containing 0.5% methylcellulose and 0.5% Tween 80. Firstly, 5 g of methylcellulose was dissolved in 990 mL of pure water, then 5 g of Tween 80 was added in small amount for many times, mixed evenly and stored at room temperature.
Preparation method of compounds: the compound was weighed, an aqueous solution with a mass ratio of 0.5% methylcellulose+0.5% Tween 80 was added, and it was processed by ultrasonic until it was dissolved.
The adaptation period of the animals was 3 days. After adaptation, the animals were weighed every day. The blank group was given drinking water, and the other groups were given drinking water containing 2% DSS. The water volume was 5 mL/animal/day. The animals in the test drug group were administrated by gavage once a day. The blank group and […] group were given the same volume of vehicle, with the administration volume of 10 mL/kg. Every other day, the fecal viscosity was evaluated, feces were collected for fecal occult blood detection, and the disease activity index (DAI) score was calculated. DSS consumption was detected every day. Fresh DSS solution was replaced every two days. The dosing cycle was continuous intragastric administration for 7 days, followed by 4 days of drug withdrawal, followed by 7 days of continuous intragastric administration. Normal drinking water was changed when intragastric administration was stopped.
DAI is the sum of the scores of body weight, fecal viscosity and fecal occult blood. Among them, the semi quantitative detection method of piramine cave was adopted for detecting fecal occult blood, including adding piramine cave to the sample first, then adding hydrogen peroxide and ethanol solution, and reading and scoring the color within 2 min. Immediately generating purple blue is marked as 4+, generating the purple blue within 10 s is marked as 3+, generating purple red within 1 min is marked as 2+, and gradually generating the purple red within 1-2 min is marked as 1+, and generating no color reaction of purple orchid or purple red within the reading time is recorded as negative (−). After the experiment, the colon and spleen were taken, and the length of colon and the weight of spleen were measured. The spleen index was the ratio of spleen weight to body weight.

[3] = after the experiment, 30 mg/kg p.o. qd, 28 days, Mean±SEM
[4] = day 3, 30 mg/kg p.o. qd from day 4, Mean±SEM
[5] = day 4, 30 mg/kg p.o. qd, Mean±SEM
[6] = day 9, 30 mg/kg p.o. qd, Mean±SEM
[7] = day 10, 30 mg/kg p.o. qd, Mean±SEM
[8] = day 13, 30 mg/kg p.o. qd, Mean±SEM
[9] = day 15, 30 mg/kg p.o. qd, Mean±SEM
[10] = day 16, 30 mg/kg p.o. qd, Mean±SEM
[11] = day 21, 30 mg/kg p.o. qd, Mean±SEM
[12] = day 27, 30 mg/kg p.o. qd, Mean±SEM
[13] = day 2, 15 mg/kg p.o. qd, Mean±SEM
[14] = day 4, 15 mg/kg p.o. qd, Mean±SEM
[15] = day 6, 15 mg/kg p.o. qd, Mean±SEM
[16] = day 8, 15 mg/kg p.o. qd, Mean±SEM
[17] = day 12, 15 mg/kg p.o. qd, Mean±SEM
[18] = day 14, 15 mg/kg p.o. qd, Mean±SEM
[19] = day 16, 15 mg/kg p.o. qd, Mean±SEM
[20] = day 18, 15 mg/kg p.o. qd, Mean±SEM
[21] = day 21 of administration, 30 mg/kg p.o.
[22] = day 2, 30 mg/kg p.o. qd, Mean±SEM
[23] = day 6, 30 mg/kg p.o. qd, Mean±SEM
[24] = day 8, 30 mg/kg p.o. qd, Mean±SEM
[25] = day 12, 30 mg/kg p.o. qd, Mean±SEM
[26] = day 14, 30 mg/kg p.o. qd, Mean±SEM
[27] = day 18, 30 mg/kg p.o. qd, Mean±SEM

Chain of JAK3 (P52333 whole entry): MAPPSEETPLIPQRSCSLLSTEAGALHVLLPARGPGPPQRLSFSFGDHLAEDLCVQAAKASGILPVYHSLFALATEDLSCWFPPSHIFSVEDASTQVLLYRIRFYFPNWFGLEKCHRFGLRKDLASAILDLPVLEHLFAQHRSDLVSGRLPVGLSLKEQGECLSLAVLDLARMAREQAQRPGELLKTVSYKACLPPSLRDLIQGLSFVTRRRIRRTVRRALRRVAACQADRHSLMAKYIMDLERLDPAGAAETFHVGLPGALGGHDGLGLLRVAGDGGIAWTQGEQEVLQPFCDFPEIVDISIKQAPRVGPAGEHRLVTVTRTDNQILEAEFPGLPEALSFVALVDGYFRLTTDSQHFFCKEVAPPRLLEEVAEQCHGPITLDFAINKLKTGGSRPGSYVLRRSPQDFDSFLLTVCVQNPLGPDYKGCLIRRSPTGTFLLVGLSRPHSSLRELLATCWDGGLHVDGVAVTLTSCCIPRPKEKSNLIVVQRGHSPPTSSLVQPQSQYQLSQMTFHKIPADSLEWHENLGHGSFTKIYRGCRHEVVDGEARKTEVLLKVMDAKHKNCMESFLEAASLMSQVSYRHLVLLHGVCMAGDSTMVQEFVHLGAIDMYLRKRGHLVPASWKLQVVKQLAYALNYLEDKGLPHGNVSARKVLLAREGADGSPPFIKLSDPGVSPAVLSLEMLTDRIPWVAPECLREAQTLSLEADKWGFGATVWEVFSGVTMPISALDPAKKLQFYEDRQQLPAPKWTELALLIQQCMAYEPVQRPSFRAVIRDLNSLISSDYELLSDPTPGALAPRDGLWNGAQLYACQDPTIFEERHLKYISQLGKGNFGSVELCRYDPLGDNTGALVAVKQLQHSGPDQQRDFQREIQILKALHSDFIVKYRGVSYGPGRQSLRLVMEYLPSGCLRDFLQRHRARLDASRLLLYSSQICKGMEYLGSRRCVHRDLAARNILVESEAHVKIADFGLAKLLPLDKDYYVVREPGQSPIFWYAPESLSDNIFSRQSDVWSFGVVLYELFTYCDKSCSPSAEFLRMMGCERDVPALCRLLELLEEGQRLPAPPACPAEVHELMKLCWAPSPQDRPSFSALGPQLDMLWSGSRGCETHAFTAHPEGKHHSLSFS
Chain of TYK2 (P29597 whole entry): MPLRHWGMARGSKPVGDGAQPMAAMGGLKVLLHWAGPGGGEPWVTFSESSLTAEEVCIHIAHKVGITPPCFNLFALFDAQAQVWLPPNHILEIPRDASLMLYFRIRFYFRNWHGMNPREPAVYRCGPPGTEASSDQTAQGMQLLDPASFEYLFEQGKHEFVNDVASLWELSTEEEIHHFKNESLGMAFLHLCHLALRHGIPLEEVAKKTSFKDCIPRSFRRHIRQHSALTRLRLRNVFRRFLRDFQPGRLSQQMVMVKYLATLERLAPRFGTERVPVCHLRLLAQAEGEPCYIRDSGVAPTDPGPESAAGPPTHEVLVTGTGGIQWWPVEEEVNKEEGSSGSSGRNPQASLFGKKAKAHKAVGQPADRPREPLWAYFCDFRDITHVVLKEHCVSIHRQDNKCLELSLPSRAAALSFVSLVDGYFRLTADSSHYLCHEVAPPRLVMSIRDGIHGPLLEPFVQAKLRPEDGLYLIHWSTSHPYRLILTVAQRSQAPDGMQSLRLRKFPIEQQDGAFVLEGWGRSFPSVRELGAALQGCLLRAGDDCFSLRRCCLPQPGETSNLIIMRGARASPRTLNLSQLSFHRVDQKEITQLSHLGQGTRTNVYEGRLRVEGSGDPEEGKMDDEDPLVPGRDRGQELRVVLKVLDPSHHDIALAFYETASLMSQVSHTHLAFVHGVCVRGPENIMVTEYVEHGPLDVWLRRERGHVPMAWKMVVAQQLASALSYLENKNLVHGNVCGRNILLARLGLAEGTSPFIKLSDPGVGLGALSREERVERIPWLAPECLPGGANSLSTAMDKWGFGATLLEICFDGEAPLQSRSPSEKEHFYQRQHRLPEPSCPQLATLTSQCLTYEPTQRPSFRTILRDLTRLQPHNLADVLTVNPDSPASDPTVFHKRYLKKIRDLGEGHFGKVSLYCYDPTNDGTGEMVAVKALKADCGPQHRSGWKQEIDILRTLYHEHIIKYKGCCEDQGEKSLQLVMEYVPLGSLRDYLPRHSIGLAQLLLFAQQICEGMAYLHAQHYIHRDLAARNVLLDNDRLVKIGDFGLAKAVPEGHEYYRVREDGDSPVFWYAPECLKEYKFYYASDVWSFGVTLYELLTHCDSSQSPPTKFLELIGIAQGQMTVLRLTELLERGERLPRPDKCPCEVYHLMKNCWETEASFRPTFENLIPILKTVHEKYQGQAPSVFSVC
Chain of JAK1 (P23458 whole entry): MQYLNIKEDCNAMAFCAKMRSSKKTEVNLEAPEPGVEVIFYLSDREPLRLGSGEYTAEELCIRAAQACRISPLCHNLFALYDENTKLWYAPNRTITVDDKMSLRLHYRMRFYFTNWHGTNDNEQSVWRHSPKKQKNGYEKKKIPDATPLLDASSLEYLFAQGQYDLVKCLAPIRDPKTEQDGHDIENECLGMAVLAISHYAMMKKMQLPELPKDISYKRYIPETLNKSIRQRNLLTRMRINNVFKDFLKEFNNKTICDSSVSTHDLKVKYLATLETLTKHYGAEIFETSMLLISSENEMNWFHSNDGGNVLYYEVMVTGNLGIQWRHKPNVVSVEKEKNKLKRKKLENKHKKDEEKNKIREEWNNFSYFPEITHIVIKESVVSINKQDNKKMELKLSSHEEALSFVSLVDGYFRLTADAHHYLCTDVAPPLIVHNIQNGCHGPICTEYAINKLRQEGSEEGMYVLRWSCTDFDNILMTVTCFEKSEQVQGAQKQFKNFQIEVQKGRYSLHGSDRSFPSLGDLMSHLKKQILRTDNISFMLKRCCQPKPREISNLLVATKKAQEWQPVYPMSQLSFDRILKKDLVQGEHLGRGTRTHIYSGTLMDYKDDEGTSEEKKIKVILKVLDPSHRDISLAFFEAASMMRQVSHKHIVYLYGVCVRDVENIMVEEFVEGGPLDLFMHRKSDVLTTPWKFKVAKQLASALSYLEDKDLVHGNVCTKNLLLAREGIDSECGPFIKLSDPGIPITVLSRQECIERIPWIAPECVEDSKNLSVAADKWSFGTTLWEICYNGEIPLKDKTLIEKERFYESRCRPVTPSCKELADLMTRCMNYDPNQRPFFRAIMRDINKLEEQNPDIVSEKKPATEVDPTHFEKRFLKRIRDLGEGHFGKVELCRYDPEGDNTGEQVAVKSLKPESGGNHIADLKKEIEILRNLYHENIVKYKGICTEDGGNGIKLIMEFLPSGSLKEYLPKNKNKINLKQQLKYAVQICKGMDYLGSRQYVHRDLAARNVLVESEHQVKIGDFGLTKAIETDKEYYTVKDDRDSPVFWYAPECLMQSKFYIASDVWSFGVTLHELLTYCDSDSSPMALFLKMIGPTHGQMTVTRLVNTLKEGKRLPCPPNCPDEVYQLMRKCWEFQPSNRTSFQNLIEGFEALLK
Chain of JAK2 (O60674 whole entry): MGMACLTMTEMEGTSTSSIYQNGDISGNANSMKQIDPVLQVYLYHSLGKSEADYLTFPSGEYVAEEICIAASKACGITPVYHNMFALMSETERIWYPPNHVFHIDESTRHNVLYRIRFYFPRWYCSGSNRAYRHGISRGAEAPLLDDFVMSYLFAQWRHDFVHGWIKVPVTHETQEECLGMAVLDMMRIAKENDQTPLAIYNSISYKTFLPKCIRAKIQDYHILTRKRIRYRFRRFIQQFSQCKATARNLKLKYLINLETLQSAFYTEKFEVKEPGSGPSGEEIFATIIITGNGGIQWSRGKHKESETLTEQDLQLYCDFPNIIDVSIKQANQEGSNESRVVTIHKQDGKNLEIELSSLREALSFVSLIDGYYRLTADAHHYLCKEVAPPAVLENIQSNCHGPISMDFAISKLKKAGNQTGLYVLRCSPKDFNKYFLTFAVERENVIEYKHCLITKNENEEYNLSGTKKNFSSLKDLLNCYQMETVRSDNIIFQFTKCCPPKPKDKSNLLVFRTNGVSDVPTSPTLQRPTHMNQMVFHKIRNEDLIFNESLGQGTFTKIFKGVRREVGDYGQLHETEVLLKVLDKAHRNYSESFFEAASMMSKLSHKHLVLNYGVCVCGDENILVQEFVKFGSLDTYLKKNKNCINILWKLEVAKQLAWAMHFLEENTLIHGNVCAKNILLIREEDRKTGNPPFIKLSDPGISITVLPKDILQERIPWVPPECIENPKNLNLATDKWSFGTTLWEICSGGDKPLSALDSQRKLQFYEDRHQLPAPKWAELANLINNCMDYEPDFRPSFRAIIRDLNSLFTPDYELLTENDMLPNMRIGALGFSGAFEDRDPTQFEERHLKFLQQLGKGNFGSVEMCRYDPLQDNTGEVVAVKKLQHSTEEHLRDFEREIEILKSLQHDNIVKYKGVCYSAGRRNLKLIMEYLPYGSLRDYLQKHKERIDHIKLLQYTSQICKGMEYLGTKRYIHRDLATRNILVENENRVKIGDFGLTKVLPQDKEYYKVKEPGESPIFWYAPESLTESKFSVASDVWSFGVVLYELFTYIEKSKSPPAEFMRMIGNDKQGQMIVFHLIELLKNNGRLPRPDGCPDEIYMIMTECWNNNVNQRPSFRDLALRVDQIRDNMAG

IC50 (JAK1): 0.063 µM
IC50 (TYK2): 0.83 µM
IC50 (JAK3): > 10 µM
Compound: O=C(Nc1nc2cccc([C@H]3CCC4(C3)CN(C(=O)[C@@H]3CC3(F)F)C4)n2n1)C1CC1 (single isomer, unassigned) [Compound 7-7]

IC50 (JAK1): 0.176 µM
IC50 (TYK2): 0.404 µM
IC50 (JAK3): > 10 µM
Compound: O=C(Nc1nc2cccc([C@@H]3CCC4(C3)CN(C(=O)[C@@H]3CC3(F)F)C4)n2n1)C1CC1 [Compound 7-8]

More lines, now with the values behind:

Compound: O=C(Nc1nc2cccc(C3CCC4(CC3)CCN(C(=O)C3CC3(F)F)C4)n2n1)C1CC1 (single isomer, unassigned) [Compound 5-7]
IC50 (JAK1): 0.031 µM
IC50 (JAK2): 0.324 µM
IC50 (TYK2): 0.067 µM
IC50 (JAK3): 5.76 µM

Compound: O=C(Nc1nc2cccc(C3CCC4(CC3)CCN(C(=O)C3CC3(F)F)C4)n2n1)C1CC1 (single isomer, unassigned) [Compound 5-8]
IC50 (JAK1): 0.075 µM
IC50 (JAK2): 0.789 µM
IC50 (TYK2): 0.692 µM
IC50 (JAK3): 7.35 µM

Compound: N#CC1(C(=O)N2CC3(CCC(c4cccc5nc(NC(=O)C6CC6)nn45)CC3)C2)CC1 [Compound 1-11]
Effect on the weight of mice (in words) ([1]; 30 mg/kg p.o. qd, 28 days): no significant effect
IgE concentration in serum [1, 3]: 7.46 ± 1.34
Thickness of the right ear [1, 3]: 0.283 ± 0.006
Weight of mice ([1]; day 1, 30 mg/kg p.o. qd from day 4, Mean±SEM): 19.45 ± 0.59
Skin score [1, 4]: 0.9 ± 0.3
Weight of mice [1, 5]: 20.15 ± 0.46
Skin score [1, 6]: 3.6 ± 1.1
Weight of mice [1, 7]: 20.21 ± 0.62
Weight of mice [1, 8]: 20.24 ± 0.41
Skin score [1, 9]: 4.4 ± 0.8
Weight of mice [1, 10]: 20.63 ± 0.43
Weight of mice ([1]; day 19, 30 mg/kg p.o. qd, Mean±SEM): 22.50 ± 0.40
Skin score [1, 11]: 5.4 ± 0.7
Weight of mice ([1]; day 22, 30 mg/kg p.o. qd, Mean±SEM): 23.97 ± 0.42
Weight of mice ([1]; day 25, 30 mg/kg p.o. qd, Mean±SEM): 22.45 ± 0.36
Skin score [1, 12]: 2.9 ± 1.2
Weight of mice ([1]; day 28, 30 mg/kg p.o. qd, Mean±SEM): 22.66 ± 0.34
Colon length ([2]; 15 mg/kg p.o. qd, Mean±SEM): 2.84 ± 0.21
Weight of mice ([2]; day 1, 15 mg/kg p.o. qd, Mean±SEM): 22.63 ± 0.29
DAI score [2, 13]: 0.30 ± 0.15
Weight of mice [2, 13]: 22.64 ± 0.28
Weight of mice ([2]; day 3, 15 mg/kg p.o. qd, Mean±SEM): 22.20 ± 0.28
DAI score [2, 14]: 1.50 ± 0.34
Weight of mice [2, 14]: 21.75 ± 0.25
Weight of mice ([2]; day 5, 15 mg/kg p.o. qd, Mean±SEM): 20.90 ± 0.30
DAI score [2, 15]: 3.50 ± 0.27
Weight of mice [2, 15]: 20.33 ± 0.28
Weight of mice ([2]; day 7, 15 mg/kg p.o. qd, Mean±SEM): 20.64 ± 0.38
DAI score [2, 16]: 4.20 ± 0.79
Weight of mice [2, 16]: 20.44 ± 0.58
Weight of mice ([2]; day 9, 15 mg/kg p.o. qd, Mean±SEM): 19.49 ± 0.77
Weight of mice ([2]; day 10, 15 mg/kg p.o. qd, Mean±SEM): 19.00 ± 0.87
Weight of mice ([2]; day 11, 15 mg/kg p.o. qd, Mean±SEM): 19.73 ± 0.77
DAI score [2, 17]: 3.11 ± 0.49
Weight of mice [2, 17]: 20.09 ± 0.90
Weight of mice ([2]; day 13, 15 mg/kg p.o. qd, Mean±SEM): 20.88 ± 0.86
DAI score [2, 18]: 3.22 ± 0.79
Weight of mice [2, 18]: 20.67 ± 0.84
Weight of mice ([2]; day 15, 15 mg/kg p.o. qd, Mean±SEM): 20.82 ± 0.91
DAI score [2, 19]: 4.44 ± 0.67
Weight of mice [2, 19]: 20.41 ± 1.05
Weight of mice ([2]; day 17, 15 mg/kg p.o. qd, Mean±SEM): 19.85 ± 1.05
DAI score [2, 20]: 5.89 ± 0.51
Weight of mice [2, 20]: 18.84 ± 1.06

Compound: O=C(Nc1nc2cccc(C3CCC4(CC3)CN(C(=O)[C@@H]3CC3(F)F)C4)n2n1)C1CC1 [Compound 1-13]
Effect on treating allergic dermatitis (in words) ([1]; 30 mg/kg p.o. qd, DNCB mice): good disease treatment effect; also recorded: significant effect
Thickness of the right ear after drug intervention (in words) ([1]; 30 mg/kg p.o., vs DNCB group): significantly decreased
Thickness of the right ear [1, 3]: 0.232 ± 0.004
Skin score [1, 4]: 0.5 ± 0.5
Skin score [1, 6]: 3.9 ± 1.6
Skin score [1, 9]: 3.7 ± 0.6
Skin score [1, 11]: 5.0 ± 1.0
Effect on skin score compared with positive drug Alonson [1, 21]: better effect
Skin score compared with DNCB group (in words) [1, 21]: significantly decreased
Skin score [1, 12]: 1.5 ± 0.5
Skin score compared with DNCB group (in words) ([1]; day 27 of administration, 30 mg/kg p.o.): significant reduction

Compound: N#CCCN1CC2(CCC(c3cccc4nc(NC(=O)C5CC5)nn34)CC2)C1 [Compound 1-17]
IC50 (JAK1): 0.065 µM
IC50 (TYK2): 0.371 µM
IC50 (JAK3): > 10 µM

Compound: O=C(Nc1nc2cccc(-c3ccc(CN4CCS(=O)(=O)CC4)cc3)n2n1)C1CC1 [Filgotinib, reference compound]
Colon shortening caused by DSS, compared with DSS group (in words) ([2]; 30 mg/kg p.o.): can reduce colon shortening
Increase of spleen index induced by DSS (in words) ([2]; 30 mg/kg p.o.): could reduce the increase of spleen index
Significance of inhibition of spleen index increase ([2]; 30 mg/kg p.o., vs DSS group): significant inhibitory effect
Colon length ([2]; 30 mg/kg p.o. qd, Mean±SEM): 3.13 ± 0.10
Weight of mice ([2]; day 1, 30 mg/kg p.o. qd, Mean±SEM): 22.10 ± 0.42
DAI score [2, 22]: 1.20 ± 0.42
Weight of mice [2, 22]: 22.35 ± 0.41
Weight of mice ([2]; day 3, 30 mg/kg p.o. qd, Mean±SEM): 22.11 ± 0.31
DAI score [2, 5]: 2.20 ± 0.61
Weight of mice [2, 5]: 22.07 ± 0.38
Weight of mice ([2]; day 5, 30 mg/kg p.o. qd, Mean±SEM): 21.61 ± 0.47
DAI score [2, 23]: 2.90 ± 0.43
Weight of mice [2, 23]: 21.21 ± 0.55
Weight of mice ([2]; day 7, 30 mg/kg p.o. qd, Mean±SEM): 20.28 ± 0.47
DAI score [2, 24]: 6.40 ± 0.69
Weight of mice [2, 24]: 19.65 ± 0.47
Weight of mice [2, 6]: 18.57 ± 0.49
Weight of mice [2, 7]: 17.98 ± 0.62
Weight of mice ([2]; day 11, 30 mg/kg p.o. qd, Mean±SEM): 17.85 ± 0.80
DAI score [2, 25]: 3.56 ± 0.82
Weight of mice [2, 25]: 18.27 ± 0.91
Weight of mice [2, 8]: 19.21 ± 0.94
DAI score [2, 26]: 3.00 ± 0.57
Weight of mice [2, 26]: 20.16 ± 0.61
Weight of mice [2, 9]: 21.11 ± 0.58
DAI score [2, 10]: 3.00 ± 0.96
Weight of mice [2, 10]: 21.09 ± 0.53
Weight of mice ([2]; day 17, 30 mg/kg p.o. qd, Mean±SEM): 20.58 ± 0.38
DAI score [2, 27]: 3.52 ± 0.73
Weight of mice [2, 27]: 19.59 ± 0.34
Spleen index ([2]; ratio of spleen weight to body weight, 30 mg/kg p.o. qd, Mean±SEM): 4.04 ± 0.18
